# Measured values taken from patent US8232273B2, “Heterocyclic compounds and methods of use” (Genentech, Inc., priority 2008, dated 2012).
# Target: Bcl-xL (GST-Bcl-xL) (Homo sapiens, UniProt Q07817)
# Experiment: TR-FRET binding assay, competition with F-Bak for the Bcl-xL binding site
# Conditions: values listed in the order of Table 1, read-out: TR-FRET assay results (Ki), Bcl-xL
# Protocol: The measurement of competition of compounds of the invention with F-Bak for a Bcl-2 family protein (Bcl-xL) binding site using a Time Resolved Fluorescence Resonance Energy Transfer (TR-FRET) binding assay:
# Test compounds were serially diluted in DMSO starting at 50 μM (2× starting concentration; 10% DMSO) and 10 μt transferred into a 384-well plate.
# The samples are then mixed on a shaker for 1 minute then incubated for an additional 2 hours at room temperature. For each assay plate, a probe/antibody and protein/antibody/probe mixture were included as a negative and a positive control, respectively. Fluorescence was measured on the Envision (Perkin Elmer) using a 340/35 nm excitation filter and 520/525 (F-Bak) and 495/510 nm (Tb-labeled anti-his antibody) emission filters. Dissociation constants (Ki) were determined using Wang's equation (see, Wang, Z. X. An exact mathematical expression for describing competitive binding of two different ligands to a protein molecule. FEBS Lett. 1995 360:111-114). The TR-FRET assay can be performed in the presence of varying concentrations of human serum (HS) or fetal bovine serum (FBS).
# Bcl-xL (GST-Bcl-xL), sequence (Q07817 whole entry, species assumed): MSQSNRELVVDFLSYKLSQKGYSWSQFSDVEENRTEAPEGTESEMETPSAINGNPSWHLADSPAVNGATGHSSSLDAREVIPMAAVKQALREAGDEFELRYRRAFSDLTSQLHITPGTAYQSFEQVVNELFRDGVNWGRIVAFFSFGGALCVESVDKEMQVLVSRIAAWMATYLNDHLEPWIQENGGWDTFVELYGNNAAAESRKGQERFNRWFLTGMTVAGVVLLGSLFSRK
row,SMILES,Ki [pM]
1,"O=C(Nc1nc2ccccc2s1)c1cccc2c1CN(c1ccc(CCCCOc3ccccc3)c(C(=O)O)n1)CC2 [Compound 131, 6-(8-(benzo[d]thiazol-2-ylcarbamoyl)-3,4-dihydroisoquinolin-2(1H)-yl)-3-(4-phenoxybutyl)picolinic acid]",18900
2,"O=C(Nc1nc2ccccc2s1)c1cccc2c1CN(c1nc(C(=O)O)c(CCOCc3ccccc3)s1)CC2 [Compound 134, 2-(8-(benzo[d]thiazol-2-ylcarbamoyl)-3,4-dihydroisoquinolin-2(1H)-yl)-5-(2-(benzyloxy)ethyl)thiazole-4-carboxylic acid]",600
3,"CN(C)CC#Cc1ccc(OCCCc2sc(N3CCc4cccc(C(=O)Nc5nc6ccccc6s5)c4C3)nc2C(=O)NS(C)(=O)=O)c(F)c1 [Compound 142, 2-(8-(benzo[d]thiazol-2-ylcarbamoyl)-3,4-dihydroisoquinolin-2(1H)-yl)-5-(3-(4-(3-(dimethylamino)prop-1-ynyl)-2-fluorophenoxy)propyl)-N-(methylsulfonyl) thiazole-4-carboxamide]",88
4,"CN(C)CC#Cc1ccc(OCCCc2sc(N3CCc4cccc(C(=O)Nc5nc6ccccc6s5)c4C3)nc2C(=O)NS(=O)(=O)C(F)F)c(F)c1 [Compound 147, 2-(8-(benzo[d]thiazol-2-ylcarbamoyl)-3,4-dihydroisoquinolin-2(1H)-yl)-N-(difluoromethylsulfonyl)-5-(3-(4-(3-(dimethylamino)prop-1-ynyl)-2-fluorophenoxy)propyl)thiazole-4-carboxamide]",> 660000
5,"O=C(Nc1nc2ccccc2s1)c1cccc2c1CN(c1nc(C(=O)O)c(CCCN3CCOCC3)s1)CC2 [Example 19, 2-(8-(benzo[d]thiazol-2-ylcarbamoyl)-3,4-dihydroisoquinolin-2(1H)-yl)-5-(3-morpholinopropyl)thiazole-4-carboxylic acid]",9000
6,O=C(Nc1nc2ccccc2s1)c1cccc2c1CN(c1nc(C(=O)O)c(CCCOc3cccc(-n4ncc5cncnc54)c3)s1)CC2 [Example 33],300
7,"N#Cc1c(-c2cccc(OCC#Cc3sc(N4CCc5cccc(C(=O)Nc6nc7ccccc7s6)c5C4)nc3C(=O)O)c2)n[nH]c1N [Example 36, 5-(3-(3-(5-amino-4-cyano-1H-pyrazol-3-yl)phenoxy)prop-1-ynyl)-2-(8-(benzo[d]thiazol-2-ylcarbamoyl)-3,4-dihydroisoquinolin-2(1H)-yl)thiazole-4-carboxylic acid]",5000
8,"N#Cc1c(-c2cccc(OCc3ccc(-c4sc(N5CCc6cccc(C(=O)Nc7nc8ccccc8s7)c6C5)nc4C(=O)O)cc3)c2)n[nH]c1N [Example 37, 5-(4-((3-(5-amino-4-cyano-1H-pyrazol-3-yl)phenoxy)methyl)phenyl)-2-(8-(benzo[d]thiazol-2-ylcarbamoyl)-3,4-dihydroisoquinolin-2(1H)-yl)thiazole-4-carboxylic acid]",4000
9,"N#Cc1c(-c2cccc(OCCCc3sc(N4CCc5cccc(C(=O)Nc6nc7ccccc7s6)c5C4)nc3C(=O)O)c2)n[nH]c1N [Example 39, 5-(3-(3-(5-amino-4-cyano-1H-pyrazol-3-yl)phenoxy)propyl)-2-(8-(benzo[d]thiazol-2-ylcarbamoyl)-3,4-dihydroisoquinolin-2(1H)-yl)thiazole-4-carboxylic acid]",200
10,"N#Cc1c(-c2ccc(OCC#Cc3sc(N4CCc5cccc(C(=O)Nc6nc7ccccc7s6)c5C4)nc3C(=O)O)cc2)n[nH]c1N [Example 40, 5-(3-(4-(5-amino-4-cyano-1H-pyrazol-3-yl)phenoxy)prop-1-ynyl)-2-(8-(benzo[d]thiazol-2-ylcarbamoyl)-3,4-dihydroisoquinolin-2(1H)-yl)thiazole-4-carboxylic acid]",400
11,"O=C(Nc1nc2ccccc2s1)c1cccc2c1CN(c1nc(C(=O)O)c(CCCCOc3ccc(-n4ncc5cncnc54)cc3)s1)CC2 [Example 43, 5-(4-(4-(1H-pyrazolo[3,4-d]pyrimidin-1-yl)phenoxy)butyl)-2-(8-(benzo[d]thiazol-2-ylcarbamoyl)-3,4-dihydroisoquinolin-2(1H)-yl)thiazole-4-carboxylic acid]",5000
12,"CC(C)Nc1ncnc2c1cnn2-c1ccc(OCCCc2sc(N3CCc4cccc(C(=O)Nc5nc6ccccc6s5)c4C3)nc2C(=O)O)cc1 [Example 44, 2-(8-(benzo[d]thiazol-2-ylcarbamoyl)-3,4-dihydroisoquinolin-2(1H)-yl)-5-(3-(4-(4-(isopropylamino)-1H-pyrazolo[3,4-d]pyrimidin-1-yl)phenoxy)propyl)thiazole-4-carboxylic acid]",70
13,"N#Cc1c(-c2cccc(OCc3sc(N4CCc5cccc(C(=O)Nc6nc7ccccc7s6)c5C4)nc3C(=O)O)c2)n[nH]c1N [Example 46, 5-[3-(5-Amino-4-cyano-1H-pyrazol-3-yl)-phenoxymethyl]-2-[8-(benzothiazol-2-ylcarbamoyl)-3,4-dihydro-1H-isoquinolin-2-yl]-thiazole-4-carboxylic acid]",1000
14,"N#Cc1c(-c2ccc(OCCCc3sc(N4CCc5cccc(C(=O)Nc6nc7ccccc7s6)c5C4)nc3C(=O)O)cc2)csc1N [Example 47, 5-{3-[4-(5-Amino-4-cyano-thiophen-3-yl)-phenoxy]-propyl}-2-[8-(benzothiazol-2-ylcarbamoyl)-3,4-dihydro-1H-isoquinolin-2-yl]-thiazole-4-carboxylic acid]",100
15,"O=C(Nc1nc2ccccc2s1)c1cccc2c1CN(c1nc(C(=O)O)c(CCCOc3ccc(C4=CSC5=NCCN45)cc3)s1)CC2 [Example 53, 2-(8-(benzo[d]thiazol-2-ylcarbamoyl)-3,4-dihydroisoquinolin-2(1H)-yl)-5-(3-(4-(5,6-dihydroimidazo[2,1-b]thiazol-3-yl)phenoxy)propyl)thiazole-4-carboxylic acid]",50
16,"N#Cc1cccnc1-c1ccc(OCCCc2sc(N3CCc4cccc(C(=O)Nc5nc6ccccc6s5)c4C3)nc2C(=O)O)cc1 [Example 56, 2-[8-(Benzothiazol-2-ylcarbamoyl)-3,4-dihydro-1H-isoquinolin-2-yl]-5-{3-[4-(3-cyano-pyridin-2-yl)-phenoxy]-propyl}-thiazole-4-carboxylic acid]",50
17,"O=C(Nc1nc2ccccc2s1)c1cccc2c1CN(c1nc(C(=O)O)c(CCCOc3ccc(N4CCOCC4)cc3)s1)CC2 [Example 59, 2-[8-(Benzothiazol-2-ylcarbamoyl)-3,4-dihydro-1H-isoquinolin-2-yl]-5-[3-(4-morpholin-4-yl-phenoxy)-propyl]-thiazole-4-carboxylic acid]",300
18,"N#Cc1cscc1-c1ccc(O)c(Cc2sc(N3CCc4cccc(C(=O)Nc5nc6ccccc6s5)c4C3)nc2C(=O)O)c1 [Example 60, 2-[8-(Benzothiazol-2-ylcarbamoyl)-3,4-dihydro-1H-isoquinolin-2-yl]-5-[5-(4-cyano-thiophen-3-yl)-2-hydroxy-benzyl]-thiazole-4-carboxylic acid]",176000
19,"CC(=O)N1CCN(c2ccc(OCCCc3sc(N4CCc5cccc(C(=O)Nc6nc7ccccc7s6)c5C4)nc3C(=O)O)cc2)CC1 [Example 61, 5-{3-[4-(4-Acetyl-piperazin-1-yl)-phenoxy]-propyl}-2-[8-(benzothiazol-2-ylcarbamoyl)-3,4-dihydro-1H-isoquinolin-2-yl]-thiazole-4-carboxylic acid]",300
20,O=C(Nc1nc2ccccc2s1)c1cccc2c1CN(c1nc(C(=O)O)c(CCCOc3ccc(-c4ncnc5c(Br)csc45)cc3)s1)CC2 [Example 65],70
21,"O=C(Nc1nc2ccccc2s1)c1cccc2c1CN(c1nc(C(=O)O)c(CCCOc3ccc(-n4ccnc4)cc3)s1)CC2 [Example 66, 5-(3-(4-(1H-imidazol-1-yl)phenoxy)propyl)-2-(8-(benzo[d]thiazol-2-ylcarbamoyl)-3,4-dihydroisoquinolin-2(1H)-yl)thiazole-4-carboxylic acid]",100
22,"O=C(Nc1nc2ccccc2s1)c1cccc2c1CN(c1nc(C(=O)O)c(CCCOc3ccc(-n4cncn4)cc3)s1)CC2 [Example 67, 5-(3-(4-(1H-1,2,4-triazol-1-yl)phenoxy)propyl)-2-(8-(benzo[d]thiazol-2-ylcarbamoyl)-3,4-dihydroisoquinolin-2(1H)-yl)thiazole-4-carboxylic acid]",50
23,"Cn1cnnc1-c1ccc(OCCCc2sc(N3CCc4cccc(C(=O)Nc5nc6ccccc6s5)c4C3)nc2C(=O)O)cc1 [Example 68, 2-(8-(benzo[d]thiazol-2-ylcarbamoyl)-3,4-dihydroisoquinolin-2(1H)-yl)-5-(3-(4-(4-methyl-4H-1,2,4-triazol-3-yl)phenoxy)propyl)thiazole-4-carboxylic acid]",200
24,"CC(C)Nc1ncnc2c(-c3ccc(OCCCc4sc(N5CCc6cccc(C(=O)Nc7nc8ccccc8s7)c6C5)nc4C(=O)O)cc3)csc12 [Example 69, 2-[8-(Benzothiazol-2-ylcarbamoyl)-3,4-dihydro-1H-isoquinolin-2-yl]-5-{3-[4-(4-isopropylamino-thieno[3,2-d]pyrimidin-7-yl)-phenoxy]-propyl}-thiazole-4-carboxylic acid]",500

# Same assay, conditions: with 1% human serum (HS)
row,SMILES,Ki [pM]
1,"CN(C)CC#Cc1ccc(OCCCc2sc(N3CCc4cccc(C(=O)Nc5nc6ccccc6s5)c4C3)nc2C(=O)O)cn1 [Example 57, 2-(8-(benzo[d]thiazol-2-ylcarbamoyl)-3,4-dihydroisoquinolin-2(1H)-yl)-5-(3-(6-(3-(dimethylamino)prop-1-ynyl)pyridin-3-yloxy)propyl)thiazole-4-carboxylic acid]",70
